Test results from the NIST ThermoML archive (doi:10.1016/j.jct.2018.11.014).

Assay: molar heat capacity at constant pressure
Settings: 101.33 kPa, Crystal, Vacuum adiabatic calorimetry

O=C(CO)[C@@H](O)[C@@H](O)[C@H](O)CO [D-(-)-tagatose]
Settings	molar heat capacity at constant pressure [J/K/mol]
10 K	0.94
14.02 K	2.674
14.41 K	2.87
14.81 K	3.123
15.25 K	3.307
15.73 K	3.601
16.23 K	3.917
16.72 K	4.241
17.21 K	4.591
17.74 K	4.922
18.26 K	5.33
18.79 K	5.733
19.32 K	6.103
19.88 K	6.523
20 K	6.61
20.46 K	6.946
21.02 K	7.413
21.59 K	7.933
22.17 K	8.327
22.74 K	8.872
23.29 K	9.326
23.86 K	9.837
24.43 K	10.34
24.96 K	10.79
25.5 K	11.35
26.05 K	11.75
26.63 K	12.36
27.21 K	12.84
27.8 K	13.39
28.43 K	14.04
29.08 K	14.61
29.7 K	15.2
30 K	15.48
30.32 K	15.75
30.93 K	16.36
31.54 K	16.95
32.18 K	17.49
32.85 K	18.2
33.51 K	18.79
34.17 K	19.45
34.85 K	20.14
35.56 K	20.8
36.25 K	21.42
36.92 K	22.12
37.6 K	22.72
38.32 K	23.45
39.06 K	24.19
39.8 K	24.86
40 K	25.07
40.56 K	25.59
41.34 K	26.39
42.12 K	27.17
42.9 K	27.84
43.73 K	28.66
44.59 K	29.45
45.47 K	30.31
46.33 K	31.15
47.17 K	31.93
48.01 K	32.72
48.86 K	33.49
49.73 K	34.49
50 K	34.58
50.59 K	35.1
51.44 K	35.9
52.28 K	36.7
53.12 K	37.43
53.94 K	38.19
54.73 K	38.96
55.51 K	39.6
56.29 K	40.34
57.09 K	41.06
57.89 K	41.8
58.7 K	42.51
59.51 K	43.28
60 K	43.72
60.35 K	44.06
61.19 K	44.77
62.02 K	45.55
62.84 K	46.28
63.66 K	46.99
64.47 K	47.71
65.28 K	48.44
66.09 K	49.12
66.9 K	49.84
67.72 K	50.53
68.52 K	51.3
69.3 K	51.99
70 K	52.55
70.08 K	52.63
70.85 K	53.29
71.66 K	54
72.51 K	54.75
73.34 K	55.43
74.17 K	56.15
74.99 K	56.78
75.84 K	57.55
76.73 K	58.37
77.61 K	59.05
78.48 K	59.83
79.34 K	60.58
80 K	61.11
80.24 K	61.32
81.18 K	62.13
82.13 K	62.93
83.07 K	63.68
84.01 K	64.47
85 K	65.34
86.03 K	66.11
87.06 K	66.91
88.1 K	67.79
89.12 K	68.69
90 K	69.42
90.18 K	69.57
91.27 K	70.49
92.35 K	71.33
93.42 K	72.22
94.47 K	73.05
95.56 K	73.96
96.68 K	74.84
97.79 K	75.75
98.88 K	76.69
99.96 K	77.46
100 K	77.52
101.1 K	78.37
102.28 K	79.32
103.46 K	80.27
104.64 K	81.16
105.83 K	82.14
107.05 K	83.09
108.3 K	84.09
109.54 K	85.07
110 K	85.43
